Experimental data published in article PMC4403932 (Journal of Medicinal Chemistry, 2015).
Like-named read-outs stand apart in the source and are kept apart here.

Key:
Assay type in all cases: binding
BRD9 [1] = target: T1, BRD9 (Homo sapiens, UniProt Q9H8M2); test: Isothermal titration calorimetry, BRD9
T1 construct: made in house
T1 sequence (Q9H8M2 136-240 limits assumed): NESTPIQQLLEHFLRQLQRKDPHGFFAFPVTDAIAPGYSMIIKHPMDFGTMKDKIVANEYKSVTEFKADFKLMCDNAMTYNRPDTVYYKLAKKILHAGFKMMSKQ
Protocol: (§1) Experiments were carried out on an ITC200 titration microcalorimeter from MicroCal, LLC (GE Healthcare) equipped with a Washing module, with a cell volume of 0.2003 mL, and a 40 μL microsyringe. Experiments were carried out at 15 °C while stirring at 1000 rpm, in ITC buffer (50 mM HEPES, pH 7.5 (at 25 °C), 150 mM NaCl). The microsyringe was loaded with a solution of the protein sample (300−740 μM protein for BRD9 and BRD4(1), respectively, in ITC buffer) and was carefully inserted into the calorimetric cell which was filled with an amount of the ligand (0.2 mL, 20–25 μM in ITC buffer). The system was first allowed to equilibrate until the cell temperature reached 15 °C, and an additional delay of 60 s was applied. All titrations were conducted using an initial control injection of 0.3 μL followed by 38 identical injections of 1 μL with a duration of 2 s (per injection) and a spacing of 120 s between injections. The titration experiments were designed in such a fashion as to ensure complete saturation of the proteins before the final injection. The heat of dilution for the proteins was independent of their concentration and corresponded to the heat observed from the last injection, following saturation of ligand binding, thus facilitating the estimation of the baseline of each titration from the last injection. The collected data were corrected for protein heats of dilution (measured on separate experiments by titrating the proteins into ITC buffer) and deconvoluted using the MicroCal Origin software supplied with the instrument to yield enthalpies of binding (ΔH) and binding constants (KB) in the same fashion as that previously described in detail by Wiseman and co-workers.[66] Thermodynamic parameters were calculated using the basic equation of thermodynamics (ΔG = ΔH – TΔS = −RT ln KB, where ΔG, ΔH, and ΔS are the changes in free energy, enthalpy, and entropy of binding, respectively). In all cases a single binding site model was employed, supplied with the MicroCal Origin software package.

BRD4(1) [2] = target: T2, BRD4(1) (Homo sapiens, UniProt O60885); test: Isothermal titration calorimetry, BRD4(1)
T2 construct: made in house
Protocol: as §1

BRD9 [3] = target: T1, BRD9; test: Protein stability (thermal) shift assay, BRD9
Protocol: (§2) Thermal melting experiments were carried out using an Mx3005p real time PCR machine (Stratagene). Proteins were buffered in 10 mM HEPES, pH 7.5, 500 mM NaCl and assayed in a 96-well plate at a final concentration of 2 μM in 20 μL volume. Compounds were added at a final concentration of 10 or 100 μM. SYPRO Orange (Molecular Probes) was added as a fluorescence probe at a dilution of 1 in 1000. Excitation and emission filters for the SYPRO-Orange dye were set to 465 and 590 nm, respectively. The temperature was raised with a step of 3 °C per minute from 25 to 96 °C, and fluorescence readings were taken at each interval. The temperature dependence of the fluorescence during the protein denaturation process was approximated by the equation [drawing 1] where ΔuG is the difference in unfolding free energy between the folded and unfolded state, R is the gas constant, and yF and yU are the fluorescence intensity of the probe in the presence of completely folded and unfolded protein, respectively.[65] The baselines of the denatured and native states were approximated by a linear fit. The observed temperature shifts, ΔTm^obs, were recorded as the difference between the transition midpoints of sample and reference wells containing protein without ligand in the same plate and determined by nonlinear least-squares fit. Temperature shifts (ΔTm^obs) for three independent measurements per proteins/compound are summarized in Supporting Information Table S1.

PCAF = target: T3, PCAF (Homo sapiens, UniProt Q92831); test: Protein stability (thermal) shift assay, PCAF; settings: for ΔTm at 10 µM: compound 10 μM, protein 2 μM, average of triplicate
T3 construct: representative BRDs from other structural subfamilies (family I, PCAF); made in house
T3 sequence (Q92831 723-827 limits assumed): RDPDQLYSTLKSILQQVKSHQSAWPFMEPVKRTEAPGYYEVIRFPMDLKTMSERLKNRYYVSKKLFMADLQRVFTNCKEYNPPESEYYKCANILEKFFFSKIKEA
Protocol: as §2

BRD3(2) = target: T4, BRD3(2) (Homo sapiens, UniProt Q15059); test: Protein stability (thermal) shift assay, BRD3(2); settings: compound 10 μM, protein 2 μM; average of triplicate
T4 construct: made in house
Protocol: as §2

BRD3(1) = target: T5, BRD3(1) (Homo sapiens, UniProt Q15059); test: Protein stability (thermal) shift assay, BRD3(1); settings: compound 10 μM, protein 2 μM; average of triplicate
T5 construct: Fragments were tested in a thermal shift assay against bromodomains of the BET subfamily; made in house
Protocol: as §2

BRD2(2) = target: T6, BRD2(2) (Homo sapiens, UniProt P25440); test: Protein stability (thermal) shift assay, BRD2(2); settings: compound 10 μM, protein 2 μM; average of triplicate
T6 construct: made in house
Protocol: as §2

PB1(5) = target: T7, PB1(5) (Homo sapiens, UniProt Q86U86); test: Protein stability (thermal) shift assay, PB1(5); settings: compound 10 μM, protein 2 μM; average of triplicate
T7 construct: made in house
Protocol: as §2

BRD4(2) = target: T8, BRD4(2) (Homo sapiens, UniProt O60885); test: Protein stability (thermal) shift assay, BRD4(2); settings: compound 10 μM, protein 2 μM; average of triplicate
T8 construct: made in house
Protocol: as §2

BAZ2B = target: T9, BAZ2B (Homo sapiens, UniProt Q9UIF8); test: Protein stability (thermal) shift assay, BAZ2B; settings: compound 10 μM, protein 2 μM; average of triplicate; read-out: ΔTm Shift, BAZ2BA
T9 construct: representative BRDs from other structural subfamilies (family I, PCAF); family III, CREBBP; family IV, BRD9; family V, BAZ2B; made in house
T9 sequence (Q9UIF8 2060-2164 limits assumed): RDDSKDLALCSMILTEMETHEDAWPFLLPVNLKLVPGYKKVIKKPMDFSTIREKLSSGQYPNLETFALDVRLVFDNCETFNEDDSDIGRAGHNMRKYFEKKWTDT
Protocol: as §2

BRD4(1) [4] = target: T2, BRD4(1); test: Protein stability (thermal) shift assay, BRD4(1); settings: for ΔTm at 10 µM: compound 10 μM, protein 2 μM, average of triplicate, read-out: ΔTm Shift, BRD4(1)
Protocol: as §2

BRDT(1) = target: T10, BRDT(1) (Homo sapiens, UniProt Q58F21); test: Protein stability (thermal) shift assay, BRDT(1); settings: compound 10 μM, protein 2 μM; average of triplicate
T10 construct: made in house
Protocol: as §2

BRDT(2) = target: T11, BRDT(2) (Homo sapiens, UniProt Q58F21); test: Protein stability (thermal) shift assay, BRDT(2); settings: compound 10 μM, protein 2 μM; average of triplicate; read-out: ΔTm Shift, BRDT(2)
T11 construct: made in house
Protocol: as §2

BRD2(1) = target: T12, BRD2(1) (Homo sapiens, UniProt P25440); test: Protein stability (thermal) shift assay, BRD2(1); settings: for ΔTm at 10 µM: compound 10 μM, protein 2 μM, average of triplicate
T12 construct: Fragments were tested in a thermal shift assay against bromodomains of the BET subfamily; made in house
Protocol: as §2

CREBBP = target: T13, CREBBP (Homo sapiens, UniProt Q92793); test: Protein stability (thermal) shift assay, CREBBP; settings: compound 10 μM, protein 2 μM; average of triplicate; read-out: ΔTm Shift, CREBBP
T13 construct: small thermal shits (1.0–1.3 °C) for the bromodomain of CREBBP; made in house
Protocol: as §2

[5] = tested on: human bromodomains (panel); test: Protein stability (thermal) shift assay, whole panel of human bromodomains; settings: 10 μM compound
Protocol: as §2

[6] = ITC, 50 mM HEPES pH 7.5, 150 mM NaCl, 15 °C, reverse titration, triplicate
[7] = compound 10 μM, protein 2 μM, average of triplicate, read-out: ΔTm Shift, BRD9
[8] = ITC, 50 mM HEPES pH 7.5, 150 mM NaCl, 15 °C, reverse titration, triplicate, read-out: KD
[9] = ITC, read-out: dissociation constant
[10] = LE = ΔG/N, N number of non-hydrogen atoms

T4 sequence (Q15059 306-415 limits assumed): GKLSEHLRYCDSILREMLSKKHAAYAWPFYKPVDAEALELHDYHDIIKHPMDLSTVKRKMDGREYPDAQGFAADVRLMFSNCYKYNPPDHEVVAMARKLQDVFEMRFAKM
T13 sequence (Q92793 1085-1192 limits assumed): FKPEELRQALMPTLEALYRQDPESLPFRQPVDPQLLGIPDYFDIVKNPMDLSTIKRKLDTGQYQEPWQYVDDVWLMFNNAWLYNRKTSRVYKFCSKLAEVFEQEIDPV
T5 sequence (Q15059 34-140 limits assumed): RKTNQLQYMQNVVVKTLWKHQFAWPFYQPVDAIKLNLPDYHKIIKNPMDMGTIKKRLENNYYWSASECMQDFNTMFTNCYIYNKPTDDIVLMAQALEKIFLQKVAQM
T7 sequence (Q86U86 653-763 limits assumed): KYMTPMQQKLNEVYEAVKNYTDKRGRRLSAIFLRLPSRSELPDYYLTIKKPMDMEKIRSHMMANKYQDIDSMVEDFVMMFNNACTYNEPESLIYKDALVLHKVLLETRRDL
T12 sequence (P25440 74-180 limits assumed): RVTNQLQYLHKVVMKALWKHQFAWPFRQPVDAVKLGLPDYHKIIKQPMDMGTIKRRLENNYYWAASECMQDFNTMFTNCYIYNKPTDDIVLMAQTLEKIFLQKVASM
T6 sequence (P25440 344-453 limits assumed): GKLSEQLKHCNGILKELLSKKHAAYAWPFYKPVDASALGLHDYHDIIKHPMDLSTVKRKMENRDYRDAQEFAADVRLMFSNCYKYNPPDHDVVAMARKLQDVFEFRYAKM

Row | KD (BRD9 [1]; [6]) | ΔTm at 10 µM (BRD9 [3]; [7]) [°C] | ΔTm at 10 µM (PCAF) [°C] | ΔTm at 10 µM (BRD3(2)) [°C] | ΔTm at 10 µM (BRD3(1)) [°C] | ΔTm at 10 µM (BRD2(2)) [°C] | ΔTm at 10 µM (PB1(5)) [°C] | ΔTm at 10 µM (BRD4(2)) [°C] | ΔTm at 10 µM (BAZ2B) [°C] | ΔTm at 10 µM (BRD4(1) [4]) [°C] | ΔTm at 10 µM (BRDT(1)) [°C] | ΔTm at 10 µM (BRDT(2)) [°C] | ΔTm at 10 µM (BRD2(1)) [°C] | ΔTm at 10 µM (CREBBP) [°C] | Compound | other results
1 | no binding/weak | 0.01 | – | – | – | – | – | – | – | – | – | – | – | – | Nc1nc(Br)c2nc[nH]c2n1 [Compound 2a, 2-amino-6-bromo-9H-purine] | KD (BRD4(1) [2]; [6]): no binding/weak; ΔTm at 10 µM (BRD9 [3]; thermal shift, 10 μM compound, 2 μM protein, read-out: ΔTm): 1.6 °C
2 | no binding/weak | -0.0162 | -1.6 | -0.6 | 0.654 | -1.8 | 1.9 | -2.4 | -0.8 | 1.4 | -0.8 | -0.4 | -0.239 | 3.1 | Cn1cnc2c(Br)nc(N)nc21 [Compound 2b, 2-Amino-6-bromo-9-methylpurine] | –
3 | – | -0.116 | 2.8 | 4.2 | 2.2 | 3.8 | 1.5 | -51.9 | – | 3.5 | 1.8 | 3.2 | 2 | 2.6 | Nc1nc(-c2ccc(OCc3ccccc3)cc2)c2nc[nH]c2n1 [Compound 3f, 2-Amino-6-(4-(benzyloxy)phenyl)-9H-purine] | binding to the bromodomain panel in the ΔTm assay (in words) [5]: showed binding toward all BRDs
4 | – | -0.107 | 1.3 | 0.6 | 0.9 | 0.9 | 0.9 | 0.5 | 0.537 | 1.4 | 0.739 | 0.7 | 1.7 | 0.847 | Nc1nc(-c2ccccc2)c2nc[nH]c2n1 [Compound 3a, 2-Amino-6-phenyl-9H-purine] | Kd (BRD9 [1]; [8]): 8.47 ± 0.237 µM; ΔG (BRD9 [1]; ITC, 15 °C): –6.69 kcal/mol; N (stoichiometry) (BRD9 [1]; ITC, 15 °C, reverse titration): 0.99 ± 0.010; Kd (BRD9 [1]; [9]): 8.5 µM; LE (ligand efficiency) (BRD9 [1]; [10]): 0.42; stabilization of PCAF in thermal melt assay (in words) (PCAF; thermal shift, 10 μM compound): stabilized; Kd (BRD4(1) [2]; [8]): 12 ± 0.743 µM; ΔG (BRD4(1) [2]; ITC, 15 °C): –6.48 kcal/mol; N (stoichiometry) (BRD4(1) [2]; ITC, 15 °C, reverse titration): 1.03 ± 0.049; Kd (BRD4(1) [2]; [9]): 12 µM; LE (ligand efficiency) (BRD4(1) [2]; [10]): 0.41; stabilization of BRD4(1) in thermal melt assay (in words) (BRD4(1) [4]; thermal shift, 10 μM compound): stabilized; binding to BRD9 in the ΔTm assay (in words) (BRD9 [3]; thermal shift, 10 μM compound): lack of affinity; stabilization of BRD2(1) in thermal melt assay (in words) (BRD2(1); thermal shift, 10 μM compound): stabilized
